Some test systems named below: SN12C renal; HCC-2998 colon; NCI-H460 lung; BT-549 breast; HL-60(TB) leukemia; SK-OV-3 ovarian; T-47D breast; SK-MEL-2 melanoma; HCT-116 colon; UACC-257 melanoma.
Assay in all cases: inhibition of tumour cell growth, NCI panel, 48 h

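Briefly, cells in 96-well plates were exposed to five compound concentrations for 48 h, and endpoints were estimated by linear interpolation. At the GI50, growth is halved. TGI marks complete inhibition of growth.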 Where a SMILES comes first, the peptide text is derived from it. The star is where a group is joined. Fmoc = O=C(OCC1c2ccccc2-c2ccccc21)*; Boc = CC(C)(C)OC(=O)*

Consider `O=C1/C(=C/c2ccc(Cl)cc2)N=C(c2ccccc2)N1CCc1cccs1`, for which the GI50 in the assay on SN12C renal was 21.1 µM; in the assay on HCC-2998 colon, 31.8 µM; in the assay with NCI-H460 lung, 20.1 µM; in the assay on BT-549 breast, 22.1 µM; in the assay on HL-60(TB) leukemia it was 21.4 µM; in the assay with SK-OV-3 ovarian, 55.9 µM. For the same molecule, the GI50 in the assay on T-47D breast was 18.2 µM; with SK-MEL-2 melanoma, 14 µM; in the assay with HCT-116 colon, 6.65 µM; with UACC-257 melanoma, 36 µM. The TGI was greater than 100 µM with SN12C renal; greater than 100 µM in the assay with HCC-2998 colon; greater than 100 µM in the assay with NCI-H460 lung; greater than 100 µM in the assay on BT-549 breast; 90.2 µM in the assay on HL-60(TB) leukemia; greater than 100 µM with SK-OV-3 ovarian. The TGI in the assay on T-47D breast, with SK-MEL-2 melanoma, in the assay with HCT-116 colon and in the assay with UACC-257 melanoma was greater than 100 µM throughout.
As for `CC(C)(C)OC(=O)NCCCCC(NC(=O)OCC1c2ccccc2-c2ccccc21)C(=O)N1CCCC1C(=O)NCC(N)=O` (stereo not drawn) (Fmoc-Lys(Boc)-Pro-Gly-NH2; configuration not given here), the TGI in the assay on SN12C renal is 30.2 µM; with HCC-2998 colon, greater than 100 µM; in the assay with NCI-H460 lung it was 37.9 µM; in the assay with BT-549 breast, greater than 100 µM; with HL-60(TB) leukemia it was greater than 100 µM; with SK-OV-3 ovarian, 26.5 µM. In addition, the TGI in the assay with T-47D breast, with SK-MEL-2 melanoma, in the assay on HCT-116 colon and in the assay with UACC-257 melanoma was greater than 100 µM each time.
With `CCOC(=O)C(C(=S)Nc1ccccc1)c1nn2c(=O)cc(C)nc2s1` (stereo not given), the TGI in the assay on SN12C renal is greater than 100 µM; in the assay with HCC-2998 colon, 60.6 µM; in the assay with NCI-H460 lung, 81.1 µM; in the assay on BT-549 breast, 78.7 µM; in the assay with HL-60(TB) leukemia, 43.8 µM; in the assay on SK-OV-3 ovarian it was 65.7 µM. Besides, the TGI came out at 85.2 µM in the assay with T-47D breast, 94.8 µM in the assay with SK-MEL-2 melanoma, 48.3 µM in the assay on HCT-116 colon and 52.2 µM in the assay on UACC-257 melanoma.
Regarding `COC1(OC)CC(CO)(CNc2cc(Cl)nc(N)n2)C1`, the TGI with SN12C renal, in the assay on HCC-2998 colon, with NCI-H460 lung, in the assay with BT-549 breast, with HL-60(TB) leukemia and in the assay with SK-OV-3 ovarian was greater than 100 µM in each case. Moreover, the TGI with T-47D breast, in the assay on SK-MEL-2 melanoma, with HCT-116 colon and with UACC-257 melanoma was greater than 100 µM in each case.
Turning to `Brc1ccc2c([C@H]3CN[C@@H](c4c[nH]c5cc(Br)ccc45)CN3)c[nH]c2c1`, the TGI in the assay with SN12C renal is 12.4 µM; in the assay with HCC-2998 colon, 3.02 µM; with NCI-H460 lung it was 4.15 µM; in the assay on BT-549 breast, 24.7 µM; with HL-60(TB) leukemia it was 4.22 µM; in the assay with SK-OV-3 ovarian, 22.7 µM. Also, the TGI in the assay on T-47D breast was 12.8 µM; with SK-MEL-2 melanoma it was 9.76 µM; in the assay with HCT-116 colon, 3.03 µM; in the assay on UACC-257 melanoma, 28.1 µM.
For `Cc1noc2nnn(-c3ccc(Cl)cc3)c(=O)c12`, the TGI in the assay with SN12C renal came to 12.2 µM; with HCC-2998 colon, 9.7 µM; in the assay on NCI-H460 lung, 21.3 µM; with BT-549 breast it was 13.5 µM; in the assay with HL-60(TB) leukemia, 3.57 µM; in the assay on SK-OV-3 ovarian, 26.5 µM. For the same molecule, the TGI in the assay with T-47D breast turned out to be 10.8 µM; in the assay on SK-MEL-2 melanoma, 10.5 µM; with HCT-116 colon it was 11.3 µM; in the assay with UACC-257 melanoma it was 20.9 µM.
Regarding `COc1ccc2oc(OC)c(CC=C(C)C)c(=O)c2c1C`, the TGI in the assay on SN12C renal, in the assay on HCC-2998 colon, with NCI-H460 lung, in the assay with BT-549 breast, with HL-60(TB) leukemia and in the assay on SK-OV-3 ovarian was greater than 100 µM in each case. The TGI in the assay on T-47D breast, in the assay with SK-MEL-2 melanoma, with HCT-116 colon and with UACC-257 melanoma was greater than 100 µM in each case.
As for `N=C(N)SCc1ccc(Cl)cc1Cl` (tested in a mixture with another compound), the TGI is 27 µM in the assay with SN12C renal; 21.5 µM with HCC-2998 colon; 24.2 µM in the assay with NCI-H460 lung; 36 µM in the assay on BT-549 breast; 22.4 µM in the assay on HL-60(TB) leukemia; 40.2 µM in the assay with SK-OV-3 ovarian. Moreover, the TGI in the assay on T-47D breast was 39 µM; in the assay with SK-MEL-2 melanoma, 27.5 µM; with HCT-116 colon, 25 µM; in the assay with UACC-257 melanoma, 20.7 µM.
Consider `CCN1CCN(c2nc3ccc([N+](=O)[O-])cc3nc2C(=O)c2ccccc2)CC1`, for which the TGI in the assay on SN12C renal is 30.9 µM; with HCC-2998 colon it was 28.6 µM; in the assay on NCI-H460 lung, 51.4 µM; with BT-549 breast, 16.9 µM; with HL-60(TB) leukemia, 61.9 µM; in the assay with SK-OV-3 ovarian, 41.7 µM. Moreover, the TGI in the assay with T-47D breast was greater than 100 µM; in the assay with SK-MEL-2 melanoma, 29.3 µM; in the assay on HCT-116 colon, 31.2 µM; with UACC-257 melanoma it was 36.7 µM.
In the case of `Nc1nc(Cl)cc(NCCC2(CO)CCC2)n1`, the TGI in the assay with SN12C renal, in the assay on HCC-2998 colon, with NCI-H460 lung, in the assay with BT-549 breast, in the assay with HL-60(TB) leukemia and in the assay with SK-OV-3 ovarian was greater than 100 µM throughout. Further, the TGI with T-47D breast, in the assay on SK-MEL-2 melanoma, in the assay on HCT-116 colon and with UACC-257 melanoma was greater than 100 µM each time.
Take `COc1ccc(/C=C2\N=C(c3ccccc3)N(N=C3NC(=O)CC(=O)N3)C2=O)cc1`: the TGI with SN12C renal, in the assay on HCC-2998 colon, with NCI-H460 lung, in the assay with BT-549 breast, in the assay with HL-60(TB) leukemia and in the assay on SK-OV-3 ovarian was greater than 100 µM in each case. Also, the TGI in the assay with T-47D breast, in the assay on SK-MEL-2 melanoma, in the assay on HCT-116 colon and in the assay with UACC-257 melanoma was greater than 100 µM throughout.
Take `Cc1cc(C)nc(SC(C)C(=O)N/N=C/c2ccc(OCc3ccccc3)cc2)n1` (stereo not given): the TGI was greater than 100 µM in the assay with SN12C renal; greater than 100 µM with HCC-2998 colon; greater than 100 µM with NCI-H460 lung; greater than 100 µM in the assay on BT-549 breast; 38.3 µM in the assay on HL-60(TB) leukemia; greater than 100 µM in the assay on SK-OV-3 ovarian. In addition, the TGI with T-47D breast was 63.8 µM; in the assay with SK-MEL-2 melanoma it was 46.1 µM; with HCT-116 colon, greater than 100 µM; in the assay with UACC-257 melanoma, 37.9 µM.

Source of the values: PubChem BioAssay (NCI).
